Read-outs that look alike come from different tables or passages of the source.
Tests used:
[1] = molecular target: T1, BcX E78Q (Niallia circulans, UniProt P09850, E106Q); settings: ref Saberi et al. [2024], cited from earlier work
T1 construct: made in house

[2] = molecular target: T2, BcX E78Q-Y69A (Niallia circulans, UniProt P09850, E106Q/Y97A); settings: ref Saberi et al. [2024], cited from earlier work
T2 construct: made in house

[3] = molecular target: T2, BcX E78Q-Y69A; test: NMR titration (1H-15N HSQC) of 15N-labeled BcX E78Q-Y69A with ligand; format: binding, Bacillus circulans
Protocol: (§1) Solutions of ^15N-labeled BcX E78Q and BcX E78Q-Y69A (100 µM) were titrated with Dia-X3 and Para-X3. Concentrations of up to 50 mM for Dia-X3 and 8 mM for Para-X3 were used. Samples were prepared separately, and each contained 25 mM sodium acetate buffer (pH 5.8) and 10% D2O for lock. ^1H − ^15N HSQC spectra were obtained on a Bruker HD Avance 850 MHz spectrometer with a cryoprobe, at 20 °C, using 3 mm tubes. In one experiment Para-X3 was reduced in the NMR tube with ascorbic acid to study the effect of reduction in a single sample. The assignment, processing, and analysis of the HSQC spectra were conducted as detailed before (Saberi et al. [2024]).
(§2) Spectra were processed with Topspin (Bruker) and analyzed using CCPN Analysis v.2.4.2 (Vranken et al. [2005]). The weighted average chemical shift perturbations (CSP) for backbone amides (Δδavg) was calculated according to Eq. 1 (modified after Williamson [2013]):1 Δδavg=δH^2+δN/25^2 where δH and δN are the CSPs for ^1H and ^15N nuclei. Titration data were fitted to a 1:1 model Eq. (2), which simplifies to (3) when the ligand concentration [Lt] is much higher than the protein concentration [Pt] (Arai et al. [2012]; Wang et al. [1996]; Williamson [2013]):2 Δδobs=ΔδmaxKD+[Pt]+[Lt]-KD+[Pt]+[Lt]^2-4[Pt][Lt]/2[Pt] 3 Δδobs=[Lt]/KD+[Lt]Δδmax where Δδobs and Δδmax are the observed and maximal change in the chemical shift and KD is the dissociation constant. The error in KD was estimated by manually adjusting KD to higher and lower values and observing the range over which the fit of the CSP data to the model remained within the peak picking error bars of the CSPs.
(§3) The fractional populations of the free and bound states were calculated using the peak height (I) as follows:4 ffree=Ifree/Ifree+Ibound,fbound=Ibound/Ifree+Ibound
(§4) Here, ffree and fbound represent the fractions of the protein in the free and bound states. The uncertainties in the peak heights represent the noise level in the spectra. The dissociation constant KD was determined using:5 KD=ffree.Lfree/fbound
(§5) In this equation, [Lfree] represents the concentration of the free ligand, which was approximated as the total ligand concentration [Ltotal] because the ligand was in large excess relative to the protein. The mean KD value was determined by averaging KD values across the used residues.

[4] = molecular target: T1, BcX E78Q; test: NMR titration (1H-15N HSQC) of 15N-labeled BcX E78Q with ligand; format: binding, Bacillus circulans
Protocol: as §1, §2, §3, §4, §5

[5] = secondary binding site, read-out: Dissociation constant KD, SBS
[6] = α-helix region, Para-X3 vs Dia-X3
[7] = α-helix region, global fit of CSP, pH 5.8, 20 °C, read-out: Dissociation constant KD, helix

| Compound | Kd ([1]; active site, read-out: Dissociation constant KD, active site) | Kd [1, 5] | Kd ([2]; active site, aglycon subsites, 2:1 model, read-out: Dissociation constant KD2, active site) | Kd ([2]; active site, glycon subsites, 2:1 model, read-out: Dissociation constant KD1, active site) | Kd [2, 5] | CSPs or PRE for amides in the inner palm region (active site) ([3]; 8 mM ligand) | Kd ([3]; active site, fit of CSP curves (fast exchange), NB = no binding, read-out: Dissociation constant KD, active site) | Affinity for helix region, fold higher than for the diamagnetic equivalent (Dia-X3) [3, 6] | Kd [3, 7] | Kd ([4]; active site, CSP of amides, up to 8 mM ligand, NB = no binding, read-out: Dissociation constant KD, active site) | Binding in the active site cavity (CSP or intensity loss of amide resonances) ([4]; inside active site cleft, up to 8 mM ligand) | Affinity for helix region, fold higher than for the diamagnetic equivalent (Dia-X3) [4, 6] | Kd [4, 7] |
| --- | --- | --- | --- | --- | --- | --- | --- | --- | --- | --- | --- | --- | --- |
| OC1OC[C@@H](O[C@@H]2OC[C@@H](O[C@@H]3OC[C@@H](O)[C@H](O)[C@H]3O)[C@H](O)[C@H]2O)[C@H](O)[C@H]1O (some centres unmarked) [X3, xylotriose] | 5.7 mM | 23 mM | 24 mM | 15 mM | 22 mM | – | – | – | – | – | – | – | – |
| CC1(C)CC(O[C@@H]2OC[C@@H](O[C@@H]3OC[C@@H](O[C@@H]4OC[C@@H](O)[C@H](O)[C@H]4O)[C@H](O)[C@H]3O)[C@H](O)[C@H]2O)CC(C)(C)N1[O] [Para-X3, β-D-xylopyranosyl-(1 → 4)-β-D-xylopyranosyl-(1 → 4)-1-TEMPOL-β-D-xylopyranoside] | – | – | – | – | – | No significant CSPs or PRE | > 8 mM | 1.4 fold | 2.4 mM | > 8 mM | absent or very weak | 2.7 fold | 1.6 mM |
| OC1OC[C@@H](O[C@@H]2OC[C@@H](O[C@@H]3OC[C@@H](O[C@@H]4OC[C@@H](O)[C@H](O)[C@H]4O)[C@H](O)[C@H]3O)[C@H](O)[C@H]2O)[C@H](O)[C@H]1O (some centres unmarked) [X4] | – | 2.3 mM | – | – | – | – | – | – | – | – | – | – | – |
